# Assay results published in US20060217418A1, “Substituted alkyl amido piperidines” (priority 2001, published 2006).
# Biological target: T1, rat MCH1 receptor (Rattus norvegicus, UniProt P97639)
# T1 construct: operatively linked to DNA encoding the rat MCH1 receptor so as to permit expression thereof; expressed in transfected cells; host or cells: Human embryonic kidney Peak rapid 293 (Peakr293) cells, transient calcium phosphate transfection, membranes
# Test: Radioligand binding assay at cloned rat MCH1 receptor ([3H]Compound A)
# Settings: cloned rat MCH1, Peakr293 cell membranes, 0.08 nM [3H]Compound A, 25° C., 90 minutes; read-out: Ki(MCH-1)
# T1 sequence (P97639 whole entry): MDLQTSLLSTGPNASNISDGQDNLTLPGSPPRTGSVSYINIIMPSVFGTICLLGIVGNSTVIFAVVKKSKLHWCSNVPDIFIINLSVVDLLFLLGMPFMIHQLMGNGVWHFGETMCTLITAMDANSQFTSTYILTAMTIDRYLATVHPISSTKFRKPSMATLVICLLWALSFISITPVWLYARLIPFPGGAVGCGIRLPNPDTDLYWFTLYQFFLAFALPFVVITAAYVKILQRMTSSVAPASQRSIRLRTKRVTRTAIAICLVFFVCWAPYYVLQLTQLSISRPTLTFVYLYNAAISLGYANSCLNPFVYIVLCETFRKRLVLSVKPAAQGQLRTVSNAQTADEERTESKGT
row,Structure (SMILES),Ki [nM]
1,"CC(C)C(=O)Nc1cccc(C2CCN(CCCNC(=O)C3(c4ccc(Cl)cc4)CC3)CC2)c1 [Example 44, 1-(4-CHLOROPHENYL)-N-(3-{4-[3-(ISOBUTYRYLAMINO)PHENYL]-1-PIPERIDINYL} PROPYL)CYCLOPROPANECARBOXAMIDE]",19.7
2,"CCCC(=O)Nc1cccc(C2CCN(CCCNC(=O)C3(c4ccc(Cl)cc4)CC3)CC2)c1 [Example 69, N-(3-{4-[3-(butyrylamino)phenyl]-1-piperidinyl}propyl)-1-(4-chlorophenyl)cyclopropane carboxamide]",39.9
3,CC(C)C(=O)Nc1ccc(F)c(C2CCN(CCCNC(=O)C3(c4ccc(Cl)cc4)CCCC3)CC2)c1 [Example 128],2.9
4,"CC(C)C(=O)Nc1cccc(C2CCN(CCCNC(=O)C(c3ccc(Cl)cc3)c3ccc(Cl)cc3)CC2)c1 [Example 2, N-{3-[1-(3-{[BIS(4-CHLOROPHENYL)ACETYL]AMINO}PROPYL)-4-PIPERIDINYL] PHENYL}-2-METHYLPROPANAMIDE]",2.4
5,"CCCC(=O)Nc1cccc(C2CCN(CCCNC(=O)C3(c4ccc(Cl)cc4)CCC3)CC2)c1 [Example 106, N-(3-{4-[3-(BUTYRYLAMINO)PHENYL]-1-PIPERIDINYL}PROPYL)-1-(4-CHLOROPHENYL) CYCLOBUTANECARBOXAMIDE]",19
6,"O=C(Nc1cccc(C2CCN(CCCNC(=O)C3(c4ccc(Cl)cc4Cl)CC3)CC2)c1)C1CC1 [Example 117, N-[3-(4-{3-[(CYCLOPROPYLCARBONYL)AMINO]PHENYL}-1-PIPERIDINYL) PROPYL]-1-(2,4-DICHLOROPHENYL)CYCLOPROPANECARBOXAMIDE]",17.9
7,"Cc1ccc(C(C(=O)NCCCN2CCC(c3cccc(NC(=O)C(C)C)c3)CC2)c2ccc(C)cc2)cc1 [Example 34, N-{3-[1-(3-{[BIS(4-METHYLPHENYL)ACETYL]AMINO}PROPYL)-4-PIPERIDINYL] PHENYL}-2-METHYLPROPANAMIDE]",2.3
8,CCCCCC(C(=O)NCCCN1CCC(c2cccc(NC(=O)C(C)C)c2)CC1)(c1ccccc1)c1ccccc1 [Example 11],8.4
9,CC(C)C(=O)Nc1cccc(C2CCN(CCCNC(=O)C(c3ccccc3)(c3ccccc3)c3ccccc3)CC2)c1 [Example 59],4.3
10,Cc1ccc(NC(=O)C(C)C)cc1C1CCN(CCCNC(=O)C2(c3ccc(F)cc3)CCCCC2)CC1 [Example 92],2.6
11,"Cc1ccc(NC(=O)C(C)C)cc1C1CCN(CCCNC(=O)[C@H](C)c2ccc(F)cc2)CC1 [Example 169, (2R)-2-(4-fluorophenyl)-N-(3-{4-[5-(isobutyrylamino)-2-methylphenyl]-1-piperidinyl}propyl) propanamide]",35.9
12,"CCC(=O)Nc1cccc(C2CCN(CCCNC(=O)C(c3ccc(F)cc3)c3ccc(F)cc3)CC2)c1 [Example 21, N-{3-[1-(3-{[2,2-BIS(4-FLUOROPHENYL)ACETYL]AMINO}PROPYL)-4-PIPERIDINYL] PHENYL}PROPANAMIDE]",0.7
13,"CCCC(=O)Nc1cccc(C2CCN(CCCNC(=O)C3(c4ccc(Cl)cc4)CCCCC3)CC2)c1 [Example 99, N-(3-{4-[3-(BUTYRYLAMINO)PHENYL]-1-PIPERIDINYL}PROPYL)-1-(4-CHLOROPHENYL) CYCLOHEXANECARBOXAMIDE]",2.9
14,"CCCC(=O)Nc1cccc(C2CCN(CCCNC(=O)C(c3ccc(F)cc3)c3ccc(F)cc3)CC2)c1 [Example 27, N-{3-[1-(3-{[2,2-BIS(4-FLUOROPHENYL)ACETYL]AMINO}PROPYL)-4-PIPERIDINYL] PHENYL}BUTANAMIDE]",1.1
15,"CC(=O)Nc1cccc(C2CCN(CCCNC(=O)C(C)(c3ccccc3)c3ccccc3)CC2)c1 [Example 103, N-(3-{4-[3-(ACETYLAMINO)PHENYL]-1-PIPERIDINYL}PROPYL)-2,2-DIPHENYL PROPANAMIDE]",8
16,"CCC(C(=O)NCCCN1CCC(c2cccc(NC(=O)C3CC3)c2)CC1)(c1ccccc1)c1ccccc1 [Example 122, N-[3-(1-{3-[(2,2-DIPHENYLBUTANOYL)AMINO]PROPYL}-4-PIPERIDINYL)PHENYL] CYCLOPROPANECARBOXAMIDE]",4.8
17,CCCC(=O)Nc1cccc(C2CCN(CCCNC(=O)C(c3ccccc3)c3ccccc3)CC2)c1 [Example 5],3.1
18,"CC(C)C(=O)Nc1cccc(C2CCN(CCCNC(=O)C3(c4ccc(Cl)cc4)CCCC3)CC2)c1 [Example 31, 1-(4-CHLOROPHENYL)-N-(3-{4-[3-(ISOBUTYRYLAMINO)PHENYL]-1-PIPERIDINYL} PROPYL)CYCLOPENTANECARBOXAMIDE]",8.2
19,CC(C)C(=O)Nc1ccc(F)c(C2CCN(CCCNC(=O)C(C)(C)c3ccc(Cl)cc3)CC2)c1 [Example 127],175
20,CC(C)C(=O)Nc1cccc(C2CCN(CCCNC(=O)C3(c4ccc(F)cc4Cl)CCCCC3)CC2)c1 [Example 138],10.2
21,"O=C(Nc1cccc(C2CCN(CCCNC(=O)C(c3ccc(F)cc3)c3ccc(F)cc3)CC2)c1)C1CC1 [Example 120, N-{3-[1-(3-{[2,2-BIS(4-FLUOROPHENYL)ACETYL]AMINO}PROPYL)-4-PIPERIDINYL] PHENYL}CYCLOPROPANECARBOXAMIDE]",0.4
22,"CC(=O)Nc1cccc(C2CCN(CCCNC(=O)C(c3ccccc3)(c3ccccc3)c3ccccc3)CC2)c1 [Example 105, N-(3-{4-[3-(ACETYLAMINO)PHENYL]-1-PIPERIDINYL}PROPYL)-2,2,2-TRIPHENYL ACETAMIDE]",2.8
23,CC(C)(C)C(=O)Nc1cccc(C2CCN(CCCNC(=O)C(c3ccccc3)c3ccccc3)CC2)c1 [Example 18],31.5
24,CC(C)(C(=O)NCCCN1CCC(c2cccc(NC(=O)C3CC3)c2)CC1)c1ccc(Cl)cc1 [Example 115],6.9
25,CCC(C(=O)NCCCN1CCC(c2cccc(NC(=O)C(C)C)c2)CC1)(c1ccccc1)c1ccccc1 [Example 12],13.9
26,"CC(C)C(=O)Nc1cccc(C2CCN(CCCNC(=O)C3(c4ccc(F)cc4)CCCC3)CC2)c1 [Example 36, 1-(4-FLUOROPHENYL)-N-(3-{4-[3-(ISOBUTYRYLAMINO)PHENYL]-1-PIPERIDINYL} PROPYL)CYCLOPENTANECARBOXAMIDE]",11
27,CCCC(=O)Nc1cc(C2CCN(CCCNC(=O)C(c3ccc(C)cc3)c3ccc(C)cc3)CC2)ccc1F [Example 109],4.7
28,"CC(C)C(=O)Nc1cncc(C2CCN(CCCNC(=O)C(c3ccccc3)c3ccccc3)CC2)c1 [Example 170, N-[5-(1-{3-[(diphenylacetyl)amino]propyl}-4-piperidinyl)-3-pyridinyl]-2-methyl propanamide]",19.1
29,"CCC(=O)Nc1cccc(C2CCN(CCCNC(=O)C(c3ccccc3)c3c(C)cc(C)cc3C)CC2)c1 (stereo not drawn) [Example 14, N-[3-(1-{3-[(2-MESITYL-2-PHENYLACETYL)AMINO]PROPYL}-4-PIPERIDINYL)PHENYL] PROPANAMIDE]",2.7
30,CC(C)C(=O)Nc1ccc(F)c(C2CCN(CCCNC(=O)C3(c4ccc(F)cc4)CCCCC3)CC2)c1 [Example 131],4

# Further lines, results first:
row,Ki [nM],Structure (SMILES)
1,3.2,Cc1ccc(NC(=O)C(C)C)cc1C1CCN(CCCNC(=O)C2(c3ccc(Cl)cc3)CCC2)CC1 [Example 86]
2,9.1,"CC(C)C(=O)Nc1c(F)cc(F)c(C2CCN(CCCNC(=O)C(c3ccccc3)c3ccccc3)CC2)c1F [Example 171, N-[3-(1-{3-[(diphenylacetyl)amino]propyl}-4-piperidinyl)-2,4,6-trifluorophenyl]-2-methylpropanamide]"
3,2.8,"CC(C(=O)NCCCN1CCC(c2cccc(NC(=O)C3CC3)c2)CC1)(c1ccccc1)c1ccccc1 [Example 123, N-[3-(1-{3-[(2,2-DIPHENYLPROPANOYL)AMINO]PROPYL}-4-PIPERIDINYL)PHENYL] CYCLOPROPANECARBOXAMIDE]"
4,4.5,CC(C)C(=O)Nc1cc(C2CCN(CCCNC(=O)C(c3ccccc3)c3ccccc3)CC2)ccc1F [Example 56]
5,5,Cc1ccc(NC(=O)C(C)C)cc1C1CCN(CCCNC(=O)C(C)c2ccc(Cl)cc2)CC1 (stereo not drawn) [Example 100]
6,16.9,"CC(C)C(=O)Nc1cccc(C2CCN(CCCNC(=O)C3(c4ccc(F)cc4)CCCCC3)CC2)n1 [Example 68, 1-(4-FLUOROPHENYL)-N-(3-{4-[6-(ISOBUTYRYLAMINO)-2-PYRIDINYL]-1-PIPERIDINYL} PROPYL)CYCLOHEXANECARBOXAMIDE]"
7,5.2,"Cc1ccc(NC(=O)C(C)C)cc1C1CCN(CCCNC(=O)C2(c3ccc(F)cc3Cl)CCCC2)CC1 [Example 135, 1-(2-CHLORO-4-FLUOROPHENYL)-N-(3-{4-[5-(ISOBUTYRYLAMINO)-2-METHYL PHENYL]-1-PIPERIDINYL}PROPYL)CYCLOPENTANECARBOXAMIDE]"
8,25.6,CC(C)C(=O)Nc1cc(C2CCN(CCCNC(=O)C3(c4ccc(Cl)cc4)CC3)CC2)ccc1F [Example 47]
9,4.6,Cc1ccc(NC(=O)C(C)C)cc1C1CCN(CCCNC(=O)C2(c3ccc(Cl)cc3)CCCCC2)CC1 [Example 85]
10,44.5,CC(C)C(=O)Nc1cc(C2CCN(CCCNC(=O)C(C)c3ccc(F)cc3)CC2)ccc1F (stereo not drawn) [Example 46]
11,63.3,"CCC(=O)Nc1cccc(C2CCN(CCCNC(=O)C3(c4ccc(F)cc4)CCCCC3)CC2)c1 [Example 61, 1-(4-FLUOROPHENYL)-N-(3-{4-[3-(PROPIONYLAMINO)PHENYL]-1-PIPERIDINYL} PROPYL)CYCLOHEXANECARBOXAMIDE]"
12,2.1,CCCC(=O)Nc1ccc(F)c(C2CCN(CCCNC(=O)C(c3ccccc3)c3ccccc3)CC2)c1 [Example 25]
13,150,"CCC(=O)Nc1cccc(C2CCN(CCCNC(=O)C3(c4ccc(Cl)cc4)CC3)CC2)c1 [Example 63, 1-(4-CHLOROPHENYL-N-(3-{4-[3-(PROPIONYLAMINO)PHENYL]-1-PIPERIDINYL} PROPYL)CYCLOPROPANECARBOXAMIDE]"
14,1.2,"Cc1ccc(C(C(=O)NCCCN2CCC(c3cccc(NC(=O)C4CC4)c3)CC2)c2ccc(C)cc2)cc1 [Example 111, N-{3-[1-(3-{[2,2-BIS(4-METHYLPHENYL)ACETYL]AMINO}PROPYL)-4-PIPERIDINYL] PHENYL}CYCLOPROPANECARBOXAMIDE]"
15,3.2,O=C(Nc1cccc(C2CCN(CCCNC(=O)C3(c4ccc(Cl)cc4)CCCC3)CC2)c1)C1CC1 [Example 112]
